The target in experiment [1] is T1, OXA-23 (Acinetobacter baumannii, UniProt Q9L4P2).
T1 construct: 5'-truncated (54 bp) E. coli-optimized blaOXA-23 gene
As to the kind of experiment: time-resolved crystal structures ([…] min soaks), ESI-LC/MS, nitrocefin competition kinetics. In kind it is biochemical.

In experiment [2] the target is T1, OXA-23. The experiment in a line: crystal structure of the acyl-enzyme complex ([…] min soak, […] meropenem). The class given is binding.

SMILES strings stand for the structures.

The record followed here is PMC12486850, “Dual mechanism of the OXA-23 carbapenemase inhibition by the carbapenem NA-1-157” (Antimicrobial Agents and Chemotherapy, 2025).

T1 sequence (Q9L4P2 19-273): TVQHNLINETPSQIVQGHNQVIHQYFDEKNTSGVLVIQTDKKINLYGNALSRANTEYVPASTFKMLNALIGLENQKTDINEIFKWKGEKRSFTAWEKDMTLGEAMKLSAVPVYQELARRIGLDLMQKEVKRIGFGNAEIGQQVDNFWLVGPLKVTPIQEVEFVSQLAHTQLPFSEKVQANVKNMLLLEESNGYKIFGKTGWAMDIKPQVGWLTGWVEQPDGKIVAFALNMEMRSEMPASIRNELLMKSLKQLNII

What is called Ki is a dissociation constant, usually derived from enzyme kinetics or from competition with a known ligand. Low values mean tighter binding, high ones weaker binding. `C[C@@H](O)[C@H]1C(=O)N2C(C(=O)O)=C(S[C@@H]3CN[C@H](C(=O)N(C)C)C3)C[C@]12C` [NA-1-157]: the affinity in experiment [1] corresponds to a Ki of 590 ± 20 nM.

`C[C@@H](O)[C@H]1C(=O)N2C(C(=O)O)=C(S[C@@H]3CN[C@H](C(=O)N(C)C)C3)[C@H](C)[C@H]12` [meropenem]: in experiment [2], the “crystal structure of the acyl-enzyme complex (6 min soak, 20 mM meropenem)” value is on record as “In the OXA-23–meropenem acyl-enzyme complex, meropenem is covalently attached to the Ser70 side chain”.
